Consider one molecule from PMC7287080, “Distinct pre-initiation steps in human mitochondrial translation” (Nature Communications, 2020).

This experiment addresses T1, mtIF2 (in mtPIC-2, mtSSU-mtIF2-mtIF3) (Homo sapiens, UniProt P46199).
T1 construct: mature mtIF2 residues 38-727, codon-optimized, pET-24b, E. coli Rosetta 2, Ni resin (His-tag implied) and gel filtration; with Translation initiation factor IF-3, mitochondrial
Put plainly: cryo-EM structure. The conditions noted are these: GTPase G-domain site, preactive state; mtIF2 (1 uM) preincubated with 2.5 mM GDPNP; mtSSU-mtIF3 bound; 25 mM HEPES-KOH pH 7.5, 5 mM Mg(OAc)2, 100 mM KCl; 3.1 A map. The experiment is classed as binding.

Take `Nc1nc2c(ncn2[C@@H]2O[C@H](COP(=O)(O)OP(=O)(O)NP(=O)(O)O)[C@@H](O)[C@H]2O)c(=O)[nH]1` [GDPNP]: the cryo-EM structure entry is given as “The G-domain-bound GDPNP is found in close proximity to the mtIF2-domain III”.
